# Calls of active or inactive are those of the source. No cut-off for these calls is given here.
# Tests used:
# MDA-MB-231 [1] = experiment: Antitumor activity against human MDA-MB-231 cells xenografted in NOD-SCID mouse assessed as inhibition of tumor growth at 15 mg/kg, ip administered 5 days per week for 27 days; assay type: functional; conditions: MDA-MB-231, 648 h, time 27 day, read-out: TGI
# CWR22R = experiment: Antiproliferative activity against human 22Rv1 cells assessed as inhibition of cell viability incubated for 3 to 4 days by CCK8 assay; assay type: functional, cell-based; conditions: time 3-4 day
# MDA-MB-231 [2] = experiment: Induction of cell cycle arrest in human MDA-MB-231 cells assessed as proportion of cells at G2 phase at 0.2 uM incubated for 24 hrs by propidium iodide staining based flow cytometry (reference value: 11.6%); assay type: functional
# MDA-MB-231 [3] = experiment: Induction of apoptosis in human MDA-MB-231 cells assessed as increase in cleaved PARP-1 expression at 0.5 uM incubated for 36 hrs by western blot analysis; assay type: functional, cell-based
# MDA-MB-231 [4] = experiment: Induction of cell cycle arrest in human MDA-MB-231 cells assessed as downregulation of cyclin B1 expression at 0.1 to 0.2 uM incubated for 24 hrs by western blot analysis; assay type: functional, cell-based; conditions: dose 0.1-0.2 µM
# [5] = Toxicity against NOD-SCID mouse xenografted with human MDA-MB-231 cells assessed as adverse effects at 15 mg/kg, ip administered 5 days per week for 27 days; assay type: organism-based; conditions: in vivo, 648 h, time 27 day
# MDA-MB-231 [6] = experiment: Induction of apoptosis in human MDA-MB-231 cells assessed as proportion of necrotic cells at 0.5 uM incubated for 36 hrs by AnnexinV-FITC/PI staining based flow cytometry (reference value: 0%); assay type: functional
# MDA-MB-231 [7] = experiment: Induction of cell cycle arrest in human MDA-MB-231 cells assessed as increase in p21 expression at 0.1 to 0.2 uM incubated for 24 hrs by western blot analysis; assay type: functional, cell-based; conditions: dose 0.1-0.2 µM
# MCF7 = experiment: Antiproliferative activity against human MCF7 cells assessed as inhibition of cell viability incubated for 3 to 4 days by CCK8 assay; assay type: functional, cell-based; conditions: time 3-4 day
# MDA-MB-231 [8] = experiment: Induction of cell cycle arrest in human MDA-MB-231 cells assessed as proportion of cells at S phase at 0.2 uM incubated for 24 hrs by propidium iodide staining based flow cytometry (reference value: 28.2%); assay type: functional
# MDA-MB-231 [9] = experiment: Induction of cell cycle arrest in human MDA-MB-231 cells assessed as proportion of cells at G2 phase at 0.1 uM incubated for 24 hrs by propidium iodide staining based flow cytometry (reference value: 11.6%); assay type: functional
# [10] = Toxicity against NOD-SCID mouse xenografted with human MDA-MB-231 cells assessed as effect on body weight at 15 mg/kg, ip administered 5 days per week for 27 days; assay type: organism-based; conditions: in vivo, 648 h, time 27 day
# MDA-MB-231 [11] = experiment: Induction of apoptosis in human MDA-MB-231 cells assessed as increase in cleaved caspase-9 expression at 0.5 uM incubated for 36 hrs by western blot analysis; assay type: functional, cell-based
# MDA-MB-231 [12] = experiment: Induction of cell cycle arrest in human MDA-MB-231 cells assessed as proportion of cells at G1 phase at 0.2 uM incubated for 24 hrs by propidium iodide staining based flow cytometry (reference value: 59.5%); assay type: functional
# MDA-MB-231 [13] = experiment: cells; conditions: Homo sapiens, MDA-MB-231, 72 h
# Description: Antiproliferative activity against human MDA-MB-231 cells assessed as inhibition of cell viability incubated for 72 hrs by CCK8 assay
# MDA-MB-231 [14] = experiment: Induction of cell cycle arrest in human MDA-MB-231 cells assessed as proportion of cells at S phase at 0.1 uM incubated for 24 hrs by propidium iodide staining based flow cytometry (reference value: 28.2%); assay type: functional
# MDA-MB-231 [15] = experiment: Induction of apoptosis in human MDA-MB-231 cells assessed as proportion of viable cells at 0.5 uM incubated for 36 hrs by AnnexinV-FITC/PI staining based flow cytometry (reference value: 93.6%); assay type: functional
# MDA-MB-231 [16] = experiment: Induction of apoptosis in human MDA-MB-231 cells assessed as proportion of late apoptotic cells at 1 uM incubated for 36 hrs by AnnexinV-FITC/PI staining based flow cytometry (reference value: […]%); assay type: functional
# MDA-MB-231 [17] = experiment: Induction of cell cycle arrest in human MDA-MB-231 cells assessed as decrease in cyclin E1 expression at 0.1 to 0.2 uM incubated for 24 hrs by western blot analysis; assay type: functional, cell-based; conditions: dose 0.1-0.2 µM
# MDA-MB-231 [18] = experiment: Antitumor activity against human MDA-MB-231 cells xenografted in NOD-SCID mouse assessed as inhibition of tumor growth at 20 mg/kg, ip qd for 10 days; assay type: functional; conditions: MDA-MB-231, 240 h, time 10 day, read-out: TGI
# MDA-MB-231 [19] = experiment: Induction of apoptosis in human MDA-MB-231 cells assessed as proportion of early apoptotic cells at 1 uM incubated for 36 hrs by AnnexinV-FITC/PI staining based flow cytometry (reference value: 5.05%); assay type: functional
# MDA-MB-231 [20] = experiment: Induction of apoptosis in human MDA-MB-231 cells assessed as proportion of viable cells at 1 uM incubated for 36 hrs by AnnexinV-FITC/PI staining based flow cytometry (reference value: 93.6%); assay type: functional
# MDA-MB-231 [21] = experiment: Induction of apoptosis in human MDA-MB-231 cells assessed as increase in cleaved caspase-3 expression at 0.5 uM incubated for 36 hrs by western blot analysis; assay type: functional, cell-based
# MDA-MB-231 [22] = experiment: Induction of cell cycle arrest in human MDA-MB-231 cells assessed as proportion of cells at G1 phase at 0.1 uM incubated for 24 hrs by propidium iodide staining based flow cytometry (reference value: 59.5%); assay type: functional
# MDA-MB-231 [23] = experiment: Induction of apoptosis in human MDA-MB-231 cells assessed as proportion of early apoptotic cells at 0.5 uM incubated for 36 hrs by AnnexinV-FITC/PI staining based flow cytometry (reference value: 5.05%); assay type: functional
# A549 = experiment: Antiproliferative activity against human A549 cells assessed as inhibition of cell viability incubated for 3 to 4 days by CCK8 assay; assay type: functional, cell-based; conditions: time 3-4 day
# MDA-MB-231 [24] = experiment: Antitumor activity against human MDA-MB-231 cells xenografted in NOD-SCID mouse assessed as reduction in tumor weight at 15 mg/kg, ip administered 5 days per week for 27 days; assay type: functional; conditions: MDA-MB-231, 648 h, time 27 day
# MDA-MB-231 [25] = experiment: Induction of apoptosis in human MDA-MB-231 cells assessed as proportion of necrotic cells at 1 uM incubated for 36 hrs by AnnexinV-FITC/PI staining based flow cytometry (reference value: 0%); assay type: functional
# MDA-MB-231 [26] = experiment: Induction of apoptosis in human MDA-MB-231 cells assessed as proportion of late apoptotic cells at 0.5 uM incubated for 36 hrs by AnnexinV-FITC/PI staining based flow cytometry (reference value: […]%); assay type: functional
smiles,measurement,setting,value
Cc1nc(Nc2ncc(C(=O)Nc3c(C)cccc3Cl)s2)cc(N2CCN(CCOC(=O)C(C)NC(=O)C[C@@H]3N=C(c4ccc(Cl)cc4)c4c(sc(C)c4C)-n4c(C)nnc43)CC2)n1 (some centres undefined),inhibition in vivo at 15 mg/kg,MDA-MB-231 [1],70.7%
same,Activity,CWR22R,Active
same,Activity,MDA-MB-231 [2],4.96%
same,Activity,MDA-MB-231 [3],Active
same,Activity,MDA-MB-231 [4],Active
same,Activity,[5],Non-Toxic
same,Activity,MDA-MB-231 [6],0%
same,Activity,MDA-MB-231 [7],Active
same,Activity,MCF7,Active
same,Activity,MDA-MB-231 [8],10.1%
same,Activity,MDA-MB-231 [9],6.47%
same,Activity,[10],Non-Toxic
same,Activity,MDA-MB-231 [11],Active
same,Activity,MDA-MB-231 [12],84.4%
same,IC50,MDA-MB-231 [13],0.034 µM
same,Activity,MDA-MB-231 [14],12.8%
same,Activity,MDA-MB-231 [15],71.1%
same,Activity,MDA-MB-231 [16],7.14%
same,Activity,MDA-MB-231 [17],Active
same,inhibition in vivo at 20 mg/kg,MDA-MB-231 [18],75.4%
same,Activity,MDA-MB-231 [19],16.5%
same,Activity,MDA-MB-231 [20],76.3%
same,Activity,MDA-MB-231 [21],Active
same,Activity,MDA-MB-231 [22],80.4%
same,Activity,MDA-MB-231 [23],22.9%
same,Activity,A549,Active
same,inhibition in vivo at 15 mg/kg,MDA-MB-231 [24],66.1%
same,Activity,MDA-MB-231 [25],0%
same,Activity,MDA-MB-231 [26],6.01%
